Test results published in patent US4624944A, “Human seminal alpha-inhibins” (The Regents of The University of California, priority 1985, dated 1986).
Where no end group is shown, it is not given here.

Columns and labels:
pituitary FSH secretion = details: in vitro and in vivo, Yamashiro et al. (1984); cited from earlier work
[1] = test system: rabbit antiserum to alpha-IB-31; experiment: RIA of alpha-inhibins using rabbit antiserum to ILP (displacement of labelled [Tyr4]-alpha-IB-31); format: binding; details: for ED50 (RIA): rabbit antiserum to ILP; for ED50 (RIA) / Relative Potency (RIA): 95% confidence limits in parenthesis; for Relative Potency (RIA): relative to alpha-IB-31 = 1.00; for potency in displacing labelled [Tyr4]-alpha-IB-31, relative to alpha-IB-31: antiserum raised against alpha-IB-31, text statement
Method: Radioimmunoassay was performed with rabbit antiserum to alpha-IB-31. Amino acid analyses were performed in an automatic amino acid analyzer (Model 119C, Beckman) as described by Spackman, et al. (1958). The NH2 -terminal residue was determined by the dansyl-Edman procedure (Gray, 1967). For COOH-terminal residue analysis, carboxypeptidase Y digests were carried out in 1M pyridine acetate buffer (pH 5.5) for 4 hr at 37° C. with an enzyme-to-substrate ratio of 1:50. Trypsin digestions were performed with an enzyme-to-substrate ratio of 1:50 in 0.05M Tris/0.01 M Mg^2+, pH 8.5, at 37° C. for 4 hr.
Alpha-IB-52 and alpha-IB-92 cross-react to an antiserum raised against alpha-IB-31. They displace labelled [Tyr^4 ]-alpha-IB-31 with 60% of the potency of alpha-IB-31.

[2] = test system: LHRH-induced FSH secretion by mouse pituitary; experiment: FSH-suppressing (inhibin) activity, in vitro mouse pituitary system; format: cell-based; details: for ED50 (FSH-suppressing activity) / times more active than alpha-IB-31 in suppressing FSH (follitropin) release: mouse pituitaries in vitro; for ED50 (FSH-suppressing activity): LHRH-induced FSH secretion, 95% confidence limits in parenthesis; for Relative Potency (FSH-suppressing activity): relative to alpha-IB-31 = 1.0; for times more active than alpha-IB-31 in suppressing FSH (follitropin) release: text statement
Method: FIG. 6 is a graphical illustration of the effect of alpha-IB-31, alpha-IB-52, and alpha-IB-92 on LHRH-induced FSH secretion by mouse pituitary. Means ±SEM (n=5) are shown. On the graph solid circles represent alpha-IB-31; open circles represent alpha-IB-52; solid triangles represent alpha-IB-92.
Disc electrophoresis in polyacrylamide slab gels was performed as described by Reisfield, et al. (1962). The gels were stained with Coomassie Blue (R250). NaDodSO4 gel electrophoresis was carried out as described by Laemmli (1970). The inhibin activity was assayed by the in vitro mouse pituitary system (Yamashiro, et al., 1984; Ramasharma, et al., 1981).
FIG. 6 presents bioassay data for alpha-IB-31, alpha-IB-52 and alpha-IB-92 in suppressing the lutropin-releasing hormone (LHRH)-induced FSH secretion by using mouse pituitaries in vitro. […] The addition of 40 amino acids at the NH2 -terminus of alpha-IB-52 greatly enhance the inhibin activity.

| ED50 (RIA) [1] | Relative Potency (RIA) [1] | potency in displacing labelled [Tyr4]-alpha-IB-31, relative to alpha-IB-31 [1] [%] | Substance | suppression of pituitary FSH secretion (pituitary FSH secretion) | ED50 (FSH-suppressing activity) [2] | Relative Potency (FSH-suppressing activity) [2] | times more active than alpha-IB-31 in suppressing FSH (follitropin) release [2] [times] | times more active than alpha-IB-31 in suppressing FSH (follitropin) release ([2]; listed as alpha-inhibin-92) |
| --- | --- | --- | --- | --- | --- | --- | --- | --- |
| 38 (29-50) fmoles | 1.00 | – | HNKQEGRDHDKSKGHFHRVVIHHKGGKAHRG [alpha-IB-31, alpha-inhibin-31, reference compound] | suppresses pituitary FSH secretion in vitro and in vivo | 1.02 (0.34-2.9) pmol/ml | 1.0 | – | – |
| 65 (45-92) fmoles | 0.58 (0.31-1.1) | 60 | HNKQEGRDHDKSKGHFHRVVIHHKGGKAHRGTQNPSQDQGNSPSGKGISSQY [alpha-IB-52, alpha-inhibin-52] | – | 0.30 (0.18-0.52) pmol/ml | 3.4 | 3.4 | – |
| 63 (42-94) fmoles | 0.60 (0.31-1.2) | 60 | alpha-inhibin-92 [alpha-IB-92] | – | 0.025 (0.01-0.049) pmol/ml | 40.5 | 40 | over 40 times |
